A short description of data set [1]: HLM stability (Low Activity). The class given is in vitro ADME. The conditions noted are these: both sexes, human, liver microsomes, pH 7.4, Condition 1 (Low Activity), 0.42 mg protein/mL. As for the experimental part: For some of the compounds, stability was tested under two microsomal incubation conditions, one with normal enzymatic activity (low activity) and one with higher enzymatic loading, longer incubation time, and lower compound concentration (high activity) intended to increase metabolic lability.
(§1) HLM Stability (Low Activity). Pooled HLM from adult male and female donors (XenoTech H0630) were used. Microsomal incubations were carried out in 96-well plates in 5 aliquots of 40 μL, each (one for each time point). Liver microsomal incubation medium consisted of PBS (100 mM, pH 7.4), MgCl2 (3.3 mM), NADPH (3 mM), glucose-6-phosphate (5.3 mM), and glucose-6-phosphate dehydrogenase (0.67 units/mL), with 0.42 mg of liver microsomal protein per mL. Control incubations were performed by replacing the NADPH-cofactor system with PBS. Test compounds (2 μM, final solvent concentration 1.6%) were incubated with microsomes at 37° C., shaking at 100 rpm. Incubations were performed in duplicate. Five time points over 40 minutes were analyzed. The reactions were stopped by adding 12 volumes of 90% acetonitrile-water to incubation aliquots, followed by protein sedimentation by centrifugation at 5500 rpm for 3 minutes. Supernatants were analyzed for parent compound remaining using a fit-for-purpose liquid chromatography-tandem mass spectrometry (LC-MS/MS) method, with authentic samples of each analyte used for identity confirmation.
(§2) Data Analysis. The elimination constant (kel), half-life (t1/2) and intrinsic clearance (Clint) were determined in a plot of […] versus time, using linear regression analysis.
Background: Liver microsomes are a subcellular fraction often used to study metabolism.

Data set [2] can be described thus: HLM stability (High Activity). The class given is in vitro ADME. The conditions noted are these: both sexes, human, liver microsomes, pH 7.4, Condition 2 (High Activity), 1.0 mg protein/mL. As for the experimental part:
as §1, with “Stability (High” for “Stability (Low”, “with 1.0” for “with 0.42”, “compounds (1” for “compounds (2”, “over 60” for “over 40”
as §2

For data set [3], the target named is MK-801 binding site of the N-methyl-D-aspartate receptor (NMDAR). The data set is described as follows: NMDAR radioligand binding with [3H]MK-801, Method A. The conditions noted are these: MK-801 site, Method A, Wistar rat brain (minus cerebellum), 5.0 nM [3H]MK-801; read-out: NMDAR Ki ± SEM. Also on record: species or system Wistar rat. As for the experimental part: Radioligand Binding—Method A. Affinity of the test compounds for NMDAR was determined in radioligand binding experiments with [^3H]MK-801 by Eurofins Panlabs, Inc., using methods adapted from the literature (Javitt et al. 1987; Reynolds et al. 1989) and under the conditions described in Table 12.

Data set [4] in a line: HLM stability (Low Activity, Alternative Method). It is filed as in vitro ADME. The conditions noted are these: both sexes, human, liver microsomes, pH 7.4, Condition 1 column, values marked *: Low Activity, 0.50 mg protein/mL. Put shortly: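 Pooled male and female human liver microsomes (0.50 mg/mL) in 100 mM PBS pH 7.4 with 1 mM MgCl2 and 1 mM NADPH, compound 1 μM (1.0% solvent), 37° C with shaking, six time points over 60 min. Parent remaining measured by LC-MS/MS; kel, t1/2 and Clint from linear regression of ln(AUC) versus time.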

Data set [5] is described as follows: MLM stability (Low Activity). The class given is in vitro ADME, CD-1 mice. The conditions noted are these: male, CD-1, mouse, liver microsomes, pH 7.4, Condition 1 (Low Activity), 0.50 mg protein/mL. Put shortly: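 Pooled male CD-1 mouse liver microsomes (0.50 mg/mL) with 1 μM compound and 1 mM NADPH in 100 mM PBS pH 7.4 with 1 mM MgCl2, 37 °C, six time points over 60 min. Parent remaining by LC-MS/MS; kel, t1/2 and Clint from linear regression of ln(AUC) versus time.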

Data set [6] in a line: RLM stability (Low Activity). The conditions noted are these: male, Sprague Dawley, rat, liver microsomes, pH 7.4, Condition 1 (Low Activity), 0.50 mg protein/mL. It is filed as in vitro ADME, Sprague Dawley rats. A digest of the protocol:
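Pooled male Sprague Dawley rat liver microsomes (0.50 mg/mL) in PBS pH 7.4 with 1 mM MgCl2 and 1 mM NADPH; compound 1 μM, 1.0% solvent, 37° C. Six time points over 60 min, parent remaining by LC-MS/MS; kel, t1/2 and Clint from linear regression of ln(AUC) versus time.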

Data set [7] concerns the target MK-801 binding site of the N-methyl-D-aspartate receptor (NMDAR). In words: NMDAR radioligand binding with [3H]MK-801, Method B. Also on record: species or system Sprague Dawley rat. The conditions noted are these: MK-801 site, Method B, male Sprague Dawley rat cortex, 5.0 nM [3H]MK-801; read-out: NMDAR Ki ± SEM. As for the experimental part:
Radioligand Binding—Method B. Affinity of the test compounds for NMDAR was determined in radioligand binding experiments with [^3H]MK-801 by WuXi AppTec (Hong Kong) Limited, under the conditions described in Table 13.

For data set [8], the target named is T1, serotonin transporter (SERT) (Homo sapiens, UniProt P31645).
T1 construct: expressed in transfected cells; host or cells: HEK293
In words: Fluorescent substrate uptake inhibition, SERT. The conditions noted are these: for inhibition at 10 µM: HEK293 cells expressing SERT. It is filed as cell-based.

For data set [9], the target named is T2, norepinephrine transporter (NET) (Homo sapiens, UniProt P23975).
T2 construct: expressed in transfected cells; host or cells: HEK293
In words: Fluorescent substrate uptake inhibition, NET. It is filed as cell-based. The conditions noted are these: 10 μM, HEK293 cells expressing NET.

The target of data set [10] is T3, dopamine transporter (DAT) (Homo sapiens, UniProt Q01959).
T3 construct: expressed in transfected cells; host or cells: CHO (uptake)
In words: Fluorescent substrate uptake inhibition, DAT. It is filed as cell-based. The conditions noted are these: 10 μM, CHO cells expressing DAT.

For data set [11], the target named is T4, vesicular monoamine transporter 2 (VMAT2) (Homo sapiens, UniProt Q05940).
T4 construct: expressed in transfected cells
In words: Fluorescent substrate uptake inhibition, VMAT2. The class given is cell-based. The conditions noted are these: 10 μM, transfected cells.

Data set [12] deals with T5, SERT (Homo sapiens, UniProt P31645).
T5 construct: expressed in transfected cells; host or cells: HEK293
In words: SERT radioligand binding with [3H]imipramine. The protocol:
Radioligand Binding. Affinity of the test compounds for SERT, NET, and DAT was determined in radioligand binding experiments with [^3H]imipramine, [^3]nisoxetine, and [^3H]WIN35,428, respectively, by WuXi AppTec (Hong Kong) Limited, under the conditions described in Table 15.

Data set [13] is described as follows: MLM stability (High Activity). The class given is in vitro ADME, BALB/c mice. The conditions noted are these: male, BALB/c, mouse, liver microsomes, pH 7.4, Condition 2 (High Activity), 1.0 mg protein/mL. The protocol: (§3) MLM Stability (High Activity). Pooled MLM from male BALB/c mice (XenoTech M3000) were used. Microsomal incubations were carried out in 96-well plates in 5 aliquots of 40 μL each (one for each time point). Liver microsomal incubation medium consisted of PBS (100 mM, pH 7.4), MgCl2 (3.3 mM), NADPH (3 mM), glucose-6-phosphate (5.3 mM), and glucose-6-phosphate dehydrogenase (0.67 units/mL), with 1.0 mg of liver microsomal protein per mL. Control incubations were performed by replacing the NADPH-cofactor system with PBS. Test compounds (1 μM, final solvent concentration 1.6%) were incubated with microsomes at 37° C., shaking at 100 rpm. Incubations were performed in duplicate. Five time points over 60 minutes were analyzed. The reactions were stopped by adding 9 volumes of 90% acetonitrile-water to incubation aliquots, followed by protein sedimentation by centrifugation at 5500 rpm for 3 minutes. Supernatants were analyzed for parent compound remaining using a fit-for-purpose liquid chromatography-tandem mass spectrometry (LC-MS/MS) method, with authentic samples of each analyte used for identity confirmation.
as §2

Data set [14] in a line: RLM stability (High Activity). The class given is in vitro ADME, Sprague Dawley rats. The conditions noted are these: male, Sprague Dawley, rat, liver microsomes, pH 7.4, Condition 2 (High Activity), 1 μM, 1.0 mg protein/mL. The protocol: as §3, with “RLM” for “MLM”, “Sprague Dawley rats” for “BALB/c mice”, “R1000, lot #1910100)” for “M3000)”
as §2

Where only a bound is given, the exact number is not on record here.

T1 sequence (P31645 whole entry, species assumed): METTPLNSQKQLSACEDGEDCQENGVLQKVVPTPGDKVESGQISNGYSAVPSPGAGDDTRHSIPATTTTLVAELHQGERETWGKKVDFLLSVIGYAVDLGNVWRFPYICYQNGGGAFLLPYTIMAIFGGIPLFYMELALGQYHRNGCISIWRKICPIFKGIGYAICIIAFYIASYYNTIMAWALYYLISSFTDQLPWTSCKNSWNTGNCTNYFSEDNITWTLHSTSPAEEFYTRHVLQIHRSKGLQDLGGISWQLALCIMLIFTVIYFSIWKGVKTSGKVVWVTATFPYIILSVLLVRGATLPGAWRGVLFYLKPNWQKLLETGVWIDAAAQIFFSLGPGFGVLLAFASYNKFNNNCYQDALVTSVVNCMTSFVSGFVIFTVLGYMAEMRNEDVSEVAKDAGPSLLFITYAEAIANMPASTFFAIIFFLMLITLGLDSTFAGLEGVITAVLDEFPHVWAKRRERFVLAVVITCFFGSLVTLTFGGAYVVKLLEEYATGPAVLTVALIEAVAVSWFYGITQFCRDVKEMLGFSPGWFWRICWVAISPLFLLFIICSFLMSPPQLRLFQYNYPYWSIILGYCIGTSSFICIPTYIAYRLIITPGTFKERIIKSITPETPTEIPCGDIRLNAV
T3 sequence (Q01959 whole entry, species assumed): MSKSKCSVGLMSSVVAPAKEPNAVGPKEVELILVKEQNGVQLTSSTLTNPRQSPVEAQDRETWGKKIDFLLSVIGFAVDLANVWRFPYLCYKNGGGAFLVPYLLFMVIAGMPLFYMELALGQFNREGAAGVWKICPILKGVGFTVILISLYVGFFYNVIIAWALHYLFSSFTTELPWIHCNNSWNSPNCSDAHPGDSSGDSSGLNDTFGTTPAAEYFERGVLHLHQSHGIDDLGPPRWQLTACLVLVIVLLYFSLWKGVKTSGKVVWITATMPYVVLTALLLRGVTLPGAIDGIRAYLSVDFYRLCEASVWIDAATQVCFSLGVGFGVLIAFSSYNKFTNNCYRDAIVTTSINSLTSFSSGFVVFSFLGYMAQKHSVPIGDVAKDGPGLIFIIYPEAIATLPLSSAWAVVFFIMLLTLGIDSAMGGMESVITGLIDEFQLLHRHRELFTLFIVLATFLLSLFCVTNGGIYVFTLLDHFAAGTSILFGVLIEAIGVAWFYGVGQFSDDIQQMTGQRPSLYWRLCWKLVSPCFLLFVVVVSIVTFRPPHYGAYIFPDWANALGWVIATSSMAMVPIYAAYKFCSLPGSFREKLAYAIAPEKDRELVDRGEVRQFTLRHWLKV
T4 sequence (Q05940 whole entry, species assumed): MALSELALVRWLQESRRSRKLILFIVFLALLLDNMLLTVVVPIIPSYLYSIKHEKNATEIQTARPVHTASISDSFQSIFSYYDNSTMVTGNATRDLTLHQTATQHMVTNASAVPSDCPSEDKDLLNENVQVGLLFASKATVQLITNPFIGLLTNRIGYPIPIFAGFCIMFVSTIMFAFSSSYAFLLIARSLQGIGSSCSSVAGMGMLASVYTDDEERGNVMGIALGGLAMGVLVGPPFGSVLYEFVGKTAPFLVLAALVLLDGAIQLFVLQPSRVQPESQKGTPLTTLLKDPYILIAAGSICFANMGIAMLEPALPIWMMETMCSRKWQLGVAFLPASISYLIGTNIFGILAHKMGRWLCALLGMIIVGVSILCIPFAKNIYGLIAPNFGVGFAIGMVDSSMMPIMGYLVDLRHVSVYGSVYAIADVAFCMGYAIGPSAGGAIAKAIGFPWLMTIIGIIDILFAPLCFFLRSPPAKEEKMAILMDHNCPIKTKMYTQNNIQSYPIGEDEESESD
T2 sequence (P23975 whole entry, species assumed): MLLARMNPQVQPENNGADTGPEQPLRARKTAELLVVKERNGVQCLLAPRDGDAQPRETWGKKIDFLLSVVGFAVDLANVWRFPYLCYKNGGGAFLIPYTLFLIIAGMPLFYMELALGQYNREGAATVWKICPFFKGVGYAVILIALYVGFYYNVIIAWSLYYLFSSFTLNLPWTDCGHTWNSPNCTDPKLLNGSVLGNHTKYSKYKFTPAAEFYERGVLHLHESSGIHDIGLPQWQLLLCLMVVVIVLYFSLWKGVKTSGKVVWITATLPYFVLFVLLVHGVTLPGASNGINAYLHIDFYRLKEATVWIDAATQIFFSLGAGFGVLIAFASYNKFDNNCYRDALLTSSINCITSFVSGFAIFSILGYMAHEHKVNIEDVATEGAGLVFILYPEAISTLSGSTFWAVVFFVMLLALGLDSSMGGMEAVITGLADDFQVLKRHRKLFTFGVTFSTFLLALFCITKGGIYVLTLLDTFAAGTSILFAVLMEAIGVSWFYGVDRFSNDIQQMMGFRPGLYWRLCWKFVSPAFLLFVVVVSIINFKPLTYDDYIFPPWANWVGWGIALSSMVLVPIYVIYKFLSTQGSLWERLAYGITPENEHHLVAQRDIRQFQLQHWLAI
T5 sequence (P31645 whole entry, species assumed): as the sequence (P31645 whole entry, species assumed) above

For orientation: half-life means how long it takes for the measured level to halve. A high value points to slow loss. As usually defined, the microsomal CLint is the capacity of the preparation to metabolise the compound, expressed as a volume cleared per time. Higher therefore signals faster metabolism. What is called Ki is a measure of affinity in units of concentration, obtained from inhibition or displacement. In data set [1], `CNC1(c2cccc(OC)c2)CCCCC1=O` (racemic) [Compound 3rac] displayed a half-life at 2 μM of 1.46 h and a microsomal CLint at 2 μM of 19 µL/min/mg. In [2], this compound showed a half-life at 1 μM of 2.5 h and a microsomal CLint at 1 μM of 5 µL/min/mg. Also, in [3], the inhibitory constant (Ki) turned out to be 0.99 µM.

A word on the IC50: it is the point on the concentration scale where inhibition reaches its midpoint. The low end stands for greater potency, the high end for weaker potency. By inhibition is commonly meant the relative decrease from the control value, in per cent. For the compound `CC(C)N[C@@]1(c2ccccc2)CCCCC1=O` [Compound 28R, (R)-2-(isopropylamino)-2-phenylcyclohexan-1-one], the results for the half-life at 1 μM in data set [4], in data set [5] and in data set [6] were 1.16 h, 0.188 h and 0.438 h, respectively. Moreover, the microsomal CLint at 1 μM is 20 µL/min/mg in [4], 123 µL/min/mg in [5] and 52.6 µL/min/mg in data set [6]. For the same compound, the Ki was over 23 µM in data set [7] and 8.6 µM in [12]. Besides, half-maximal inhibition in data set [8] (IC50) was put at 7.3 µM. Further, the inhibition at 10 µM is 37.2% in [8], 11.4% in data set [9], 16.5% in data set [10] and -11.4% in data set [11].

As for `NC1(c2ccccc2Cl)CCCCC1=O` (racemic) [Compound 78rac], in data set [1], the half-life at 2 μM turned out to be 4.28 h and the microsomal CLint at 2 μM was found to be 7 µL/min/mg. In data set [2], this compound gave a half-life at 1 μM of 3.03 h and a microsomal CLint at 1 μM of 4 µL/min/mg. Moreover, in data set [3], the Ki came out at 4 µM.

In the case of `CN[C@@]1(c2cccc(F)c2)CCCCC1=O` [Compound 19R, (R)-2-(3-fluorophenyl)-2-(methylamino)cyclohexan-1-one], the half-life at 1 μM in data set [2] was 2.27 h; in data set [13] it was 0.998 h; in data set [14] it was 0.195 h. Besides, the values for the microsomal CLint at 1 μM in data set [2], in [13] and in data set [14] were 5 µL/min/mg, 12 µL/min/mg and 59 µL/min/mg, respectively. In addition, the Ki in data set [7] was determined as 6.8 µM. In addition, the inhibition at 10 µM in [8] was 20.9%; in data set [9] it was 8.8%; in [10] it was -10.7%; in [11], 11%.

Regarding `NC1(c2ccccc2)CCCCC1=O` (racemic) [Compound 11rac, 2-amino-2-phenyl-cyclohexan-1-one], in data set [1], the half-life at 2 μM came out at 13.4 h and the microsomal CLint at 2 μM is 2 µL/min/mg. Besides, in [2], the half-life at 1 μM worked out at 8.9 h and the microsomal CLint at 1 μM is 1 µL/min/mg. Further, the inhibitory constant (Ki) in data set [3] turned out to be 1.4 µM.

As to `CCNC1(c2ccccc2)CCCCC1=O` (racemic) [Compound 1rac], in data set [1], the half-life at 2 μM came to 2.22 h and the microsomal CLint at 2 μM was 13 µL/min/mg. In data set [2], the half-life at 1 μM turned out to be 4.98 h and the microsomal CLint at 1 μM came to 2 µL/min/mg. For the same compound, the Ki in [3] is 0.3 µM.

(Values after patent US11344510B2, “Arylcyclohexylamine derivatives and their use in the treatment of psychiatric disorders” (Gilgamesh Pharmaceuticals, Inc., priority 2019, dated 2022).)
